# In ChEMBL document CHEMBL1201861, “Genomics of Drug Sensitity in Cancer screening data, Wellcome Trust Sanger Institute”:
# Legend:
# [1] = tested on: SCLC-21H; test: cells; format: functional, cell-based, Homo sapiens; settings: Homo sapiens, SCLC-21H;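 note: growth inhibition of cultured human SCLC-21H cells, read out with a cell viability assay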
# Description: SANGER: Inhibition of human SCLC-21H cell growth in a cell viability assay.
# [2] = tested on: D-336MG; test: cells; format: functional, cell-based, Homo sapiens; settings: Homo sapiens, D-336MG
# Description: SANGER: Inhibition of human D-336MG cell growth in a cell viability assay.
# [3] = tested on: BC1 cell line; test: SANGER: Inhibition of human BC-1 cell growth in a cell viability assay.; format: functional, cell-based; settings: Homo sapiens, BC1
# [4] = tested on: SR; test: cells; format: functional, cell-based, Homo sapiens; settings: Homo sapiens, SR
# Description: SANGER: Inhibition of human SR cell growth in a cell viability assay.
# [5] = tested on: NCI-H2171; test: cells; format: functional, cell-based, Homo sapiens; settings: Homo sapiens, NCI-H2171;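 note: growth inhibition of human NCI-H2171 cells, read out by a cell viability assay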
# Description: SANGER: Inhibition of human NCI-H2171 cell growth in a cell viability assay.
# [6] = tested on: OPM-2; test: cells; format: functional, cell-based, Homo sapiens; settings: Homo sapiens, OPM-2;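 note: growth of OPM-2 cells measured with a viability assay, IC50 for suppression of proliferation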
# Description: SANGER: Inhibition of human OPM-2 cell growth in a cell viability assay.
# [7] = tested on: NCI-H1436; test: cells; format: functional, cell-based, Homo sapiens; settings: Homo sapiens, NCI-H1436;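 note: growth suppression of human NCI-H1436 cells, determined with a cell viability readout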
# Description: SANGER: Inhibition of human NCI-H1436 cell growth in a cell viability assay.
# [8] = tested on: EB-3; test: cells; format: functional, cell-based, Homo sapiens; settings: Homo sapiens, EB-3;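 note: human EB-3 cells, growth inhibition read out via a cell viability assay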
# Description: SANGER: Inhibition of human EB-3 cell growth in a cell viability assay.
# [9] = tested on: LOUCY; test: cells; format: functional, cell-based, Homo sapiens; settings: Homo sapiens, LOUCY;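 note: growth inhibition of human LOUCY cells, read out with a cell viability assay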
# Description: SANGER: Inhibition of human LOUCY cell growth in a cell viability assay.
# [10] = tested on: HC-1; test: cells; format: functional, cell-based, Homo sapiens; settings: Homo sapiens, HC-1;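 note: growth inhibition of HC-1 cells measured by a cell viability assay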
# Description: SANGER: Inhibition of human HC-1 cell growth in a cell viability assay.
# [11] = tested on: NCI-H1963; test: cells; format: functional, cell-based, Homo sapiens; settings: Homo sapiens, NCI-H1963
# Description: SANGER: Inhibition of human NCI-H1963 cell growth in a cell viability assay.
# [12] = tested on: K052; test: cells; format: functional, cell-based, Homo sapiens; settings: Homo sapiens, K052;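 note: Read-out from a cell viability assay, IC50 reflecting suppression of K052 cell growth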
# Description: SANGER: Inhibition of human K052 cell growth in a cell viability assay.
# [13] = tested on: NCI-H64; test: cells; format: functional, cell-based, Homo sapiens; settings: Homo sapiens, NCI-H64;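 note: growth inhibition of NCI-H64 cells, read out with a cell viability assay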
# Description: SANGER: Inhibition of human NCI-H64 cell growth in a cell viability assay.
# [14] = tested on: NCI-H2141; test: cells; format: functional, cell-based, Homo sapiens; settings: Homo sapiens, NCI-H2141;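 note: growth inhibition of human NCI-H2141 cells, read out with a cell viability assay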
# Description: SANGER: Inhibition of human NCI-H2141 cell growth in a cell viability assay.
# [15] = tested on: Kasumi 1; test: cells; format: functional, cell-based, Homo sapiens; settings: Homo sapiens, Kasumi 1;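 note: growth inhibition of human Kasumi-1 cells, read out by a cell viability assay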
# Description: SANGER: Inhibition of human KASUMI-1 cell growth in a cell viability assay.
# [16] = tested on: CHP-126; test: cells; format: functional, cell-based, Homo sapiens; settings: Homo sapiens, CHP-126
# Description: SANGER: Inhibition of human CHP-126 cell growth in a cell viability assay.
# [17] = tested on: PF-382; test: cells; format: functional, cell-based, Homo sapiens; settings: Homo sapiens, PF-382
# Description: SANGER: Inhibition of human PF-382 cell growth in a cell viability assay.
# [18] = tested on: MC-IXC; test: cells; format: functional, cell-based; settings: Homo sapiens;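 note: growth inhibition of MC-IXC cells, read out with a cell viability assay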
# Description: SANGER: Inhibition of human MC-IXC cell growth in a cell viability assay.
# [19] = tested on: NCI-H522; test: cells; format: functional, cell-based; settings: Homo sapiens;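 note: cell viability assay measuring growth inhibition of human NCI-H522 cells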
# Description: SANGER: Inhibition of human NCI-H522 cell growth in a cell viability assay.
# [20] = tested on: GP5d; test: cells; format: functional, cell-based; settings: Homo sapiens;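 note: growth inhibition of human GP5d cells, read out with a cell viability assay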
# Description: SANGER: Inhibition of human GP5d cell growth in a cell viability assay.
# [21] = tested on: Ca-Ski; test: cells; format: functional, cell-based; settings: Homo sapiens;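 note: cell viability assay measuring inhibition of Ca-Ski cell growth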
# Description: SANGER: Inhibition of human Ca-Ski cell growth in a cell viability assay.
# [22] = tested on: M059J; test: cells; format: functional, cell-based; settings: Homo sapiens;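 note: growth inhibition of M059J cells, read out with a cell viability assay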
# Description: SANGER: Inhibition of human M059J cell growth in a cell viability assay.
# [23] = tested on: FTC-133; test: cells; format: functional, cell-based; settings: Homo sapiens
# [24] = tested on: HO-1-N-1; test: cells; format: functional, cell-based; settings: Homo sapiens;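 note: growth inhibition of human HO-1-N-1 cells, read out with a cell viability assay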
# Description: SANGER: Inhibition of human HO-1-N-1 cell growth in a cell viability assay.
# [25] = tested on: CAL-120; test: cells; format: functional, cell-based; settings: Homo sapiens;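 note: cell growth inhibition, read out as cell viability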
# Description: SANGER: Inhibition of human CAL-120 cell growth in a cell viability assay.
# [26] = tested on: DOK; test: cells; format: functional, cell-based; settings: Homo sapiens;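 note: cell viability assay read-out, values reflect inhibition of cell growth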
# Description: SANGER: Inhibition of human DOK cell growth in a cell viability assay.
# [27] = tested on: HCC1395; test: cells; format: functional, cell-based; settings: Homo sapiens;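 note: growth inhibition of HCC1395 cells, read out by a cell viability assay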
# Description: SANGER: Inhibition of human HCC1395 cell growth in a cell viability assay.
# [28] = tested on: NCI-H596; test: cells; format: functional, cell-based; settings: Homo sapiens;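 note: growth inhibition of NCI-H596 cells, read out with a cell viability assay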
# Description: SANGER: Inhibition of human NCI-H596 cell growth in a cell viability assay.
# [29] = tested on: LK-2; test: cells; format: functional, cell-based; settings: Homo sapiens;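 note: growth inhibition of LK-2 cells, read out with a viability assay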
# Description: SANGER: Inhibition of human LK-2 cell growth in a cell viability assay.
# [30] = tested on: TYK-nu; test: cells; format: functional, cell-based; settings: Homo sapiens;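 note: growth inhibition of human TYK-nu cells, read out by a cell viability assay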
# Description: SANGER: Inhibition of human TYK-nu cell growth in a cell viability assay.
# [31] = tested on: J82; test: cells; format: functional, cell-based; settings: Homo sapiens;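 note: growth inhibition of J82 cells, read out with a cell viability assay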
# Description: SANGER: Inhibition of human J82 cell growth in a cell viability assay.
# [32] = tested on: RERF-LC-MS; test: cells; format: functional, cell-based; settings: Homo sapiens;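 note: growth inhibition of human RERF-LC-MS cells, read out by a cell viability assay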
# Description: SANGER: Inhibition of human RERF-LC-MS cell growth in a cell viability assay.
# [33] = tested on: HT55; test: cells; format: functional, cell-based; settings: Homo sapiens;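 note: cell viability readout measuring growth inhibition of human HT55 cells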
# Description: SANGER: Inhibition of human HT55 cell growth in a cell viability assay.
# [34] = tested on: EGI-1; test: cells; format: functional, cell-based; settings: Homo sapiens;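 note: cell viability readout used to gauge growth inhibition of EGI-1 cells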
# Description: SANGER: Inhibition of human EGI-1 cell growth in a cell viability assay.
# [35] = tested on: RCM-1; test: cells; format: functional, cell-based; settings: Homo sapiens;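 note: growth inhibition of the RCM-1 line, determined with a cell viability readout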
# Description: SANGER: Inhibition of human RCM-1 cell growth in a cell viability assay.
# [36] = tested on: MG-63; test: cells; format: functional, cell-based; settings: Homo sapiens;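 note: growth inhibition of human MG-63 cells, read out with a cell viability assay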
# Description: SANGER: Inhibition of human MG-63 cell growth in a cell viability assay.
# [37] = tested on: MEL-HO; test: cells; format: functional, cell-based; settings: Homo sapiens
# Description: SANGER: Inhibition of human MEL-HO cell growth in a cell viability assay.
# [38] = tested on: IGR-1; test: cells; format: functional, cell-based; settings: Homo sapiens;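 note: growth inhibition of human IGR-1 cells, read out with a cell viability assay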
# Description: SANGER: Inhibition of human IGR-1 cell growth in a cell viability assay.
# [39] = tested on: MDA-MB-361; test: cells; format: functional, cell-based; settings: Homo sapiens
# [40] = tested on: HCC70; test: cells; format: functional, cell-based; settings: Homo sapiens;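 note: cell viability assay measuring how strongly the compound suppresses proliferation of HCC70 cells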
# Description: SANGER: Inhibition of human HCC70 cell growth in a cell viability assay.
# [41] = tested on: SK-OV-3; test: cells; format: functional, cell-based; settings: Homo sapiens;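 note: growth inhibition of SK-OV-3 human cells, read out with a cell viability assay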
# Description: SANGER: Inhibition of human SK-OV-3 cell growth in a cell viability assay.
# [42] = tested on: YKG-1; test: cells; format: functional, cell-based; settings: Homo sapiens;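 note: cell growth inhibition, read out with a viability assay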
# Description: SANGER: Inhibition of human YKG-1 cell growth in a cell viability assay.
# [43] = tested on: P12-Ichikawa; test: cells; format: functional, cell-based; settings: Homo sapiens
# [44] = tested on: FaDu; test: cells; format: functional, cell-based; settings: Homo sapiens;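 note: cell viability readout of growth inhibition in FaDu cells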
# Description: SANGER: Inhibition of human FADU cell growth in a cell viability assay.
# [45] = tested on: SCC-9; test: cells; format: functional, cell-based; settings: Homo sapiens;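 note: Read-out is a cell viability assay, with values giving inhibition of cell growth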
# Description: SANGER: Inhibition of human SCC-9 cell growth in a cell viability assay.
# [46] = tested on: KYSE-150 cell line; test: cells; format: functional, cell-based; settings: Homo sapiens;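 note: growth inhibition of human KYSE-150 cells, read out with a cell viability assay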
# Description: SANGER: Inhibition of human KYSE-150 cell growth in a cell viability assay.
# [47] = tested on: KYSE-140; test: cells; format: functional, cell-based; settings: Homo sapiens;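 note: cell viability assay measuring growth inhibition in human KYSE-140 cells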
# Description: SANGER: Inhibition of human KYSE-140 cell growth in a cell viability assay.
# [48] = tested on: KYSE-510; test: cells; format: functional, cell-based; settings: Homo sapiens;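 note: cell viability readout used to measure how strongly growth of the cell line is suppressed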
# Description: SANGER: Inhibition of human KYSE-510 cell growth in a cell viability assay.
# [49] = tested on: BXPC-3; test: cells; format: functional, cell-based; settings: Homo sapiens;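 note: growth inhibition of human BxPC-3 cells, read out by a cell viability assay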
# Description: SANGER: Inhibition of human BxPC-3 cell growth in a cell viability assay.
# [50] = tested on: CAL-33; test: cells; format: functional, cell-based; settings: Homo sapiens;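 note: growth inhibition of CAL-33 cells, read out with a cell viability assay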
# Description: SANGER: Inhibition of human CAL-33 cell growth in a cell viability assay.
# [51] = tested on: G-401; test: cells; format: functional, cell-based; settings: Homo sapiens
# Description: SANGER: Inhibition of human G-401 cell growth in a cell viability assay.
# [52] = tested on: RPMI-2650; test: cells; format: functional, cell-based; settings: Homo sapiens
# Description: SANGER: Inhibition of human RPMI-2650 cell growth in a cell viability assay.
# [53] = tested on: A2780; test: cells; format: functional, cell-based; settings: Homo sapiens;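 note: growth inhibition of A2780 cells, read out with a cell viability assay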
# Description: SANGER: Inhibition of human A2780 cell growth in a cell viability assay.
# [54] = tested on: HPAF-II; test: cells; format: functional, cell-based; settings: Homo sapiens;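 note: growth inhibition of HPAF-II cells, read out with a cell viability assay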
# Description: SANGER: Inhibition of human HPAF-II cell growth in a cell viability assay.
# [55] = tested on: Hs-578T; test: cells; format: functional, cell-based; settings: Homo sapiens
# Description: SANGER: Inhibition of human Hs-578-T cell growth in a cell viability assay.
# [56] = tested on: MDA-MB-453; test: cells; format: functional, cell-based; settings: Homo sapiens
# Description: SANGER: Inhibition of human MDA-MB-453 cell growth in a cell viability assay.
# [57] = tested on: NCI-H441; test: cells; format: functional, cell-based; settings: Homo sapiens;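 note: growth inhibition of NCI-H441 cells, read out with a cell viability assay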
# Description: SANGER: Inhibition of human NCI-H441 cell growth in a cell viability assay.
# [58] = tested on: CAPAN-1; test: cells; format: functional, cell-based; settings: Homo sapiens;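 note: growth suppression of CAPAN-1 cells, read out by a cell viability assay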
# Description: SANGER: Inhibition of human CAPAN-1 cell growth in a cell viability assay.
# [59] = tested on: NCI-H1437; test: cells; format: functional, cell-based; settings: Homo sapiens;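 note: growth inhibition of human NCI-H1437 cells, read out by a cell viability assay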
# Description: SANGER: Inhibition of human NCI-H1437 cell growth in a cell viability assay.
compound,measurement,setting,value
COc1cc(N2CCC(N3CCN(C)CC3)CC2)ccc1Nc1ncc(Cl)c(Nc2ccccc2S(=O)(=O)C(C)C)n1 [TAE-684],IC50,[1],> 2000 nM
same,IC50,[2],662 nM
same,IC50,[3],> 2000 nM
same,IC50,[4],2.77 nM
same,IC50,[5],> 2000 nM
same,IC50,[6],227 nM
same,IC50,[7],> 2000 nM
same,IC50,[8],> 2000 nM
same,IC50,[9],> 2000 nM
same,IC50,[10],> 2000 nM
same,IC50,[11],> 2000 nM
same,IC50,[12],> 2000 nM
same,IC50,[13],> 2000 nM
same,IC50,[14],> 2000 nM
same,IC50,[15],> 2000 nM
same,IC50,[16],860 nM
same,IC50,[17],1570 nM
CS(=O)(=O)N1CCN(Cc2cc3nc(-c4cccc5[nH]ncc45)nc(N4CCOCC4)c3s2)CC1 [PICTILISIB],IC50,[18],> 4000 nM
same,IC50,[19],> 4000 nM
same,IC50,[20],> 4000 nM
same,IC50,[21],> 4000 nM
same,IC50,[22],> 4000 nM
same,IC50,[23],> 4000 nM
same,IC50,[24],659 nM
same,IC50,[25],> 4000 nM
same,IC50,[26],302 nM
same,IC50,[27],> 4000 nM
same,IC50,[28],> 4000 nM
same,IC50,[29],> 4000 nM
same,IC50,[30],1960 nM
same,IC50,[31],> 4000 nM
same,IC50,[32],> 4000 nM
same,IC50,[33],> 4000 nM
same,IC50,[34],1850 nM
same,IC50,[35],> 4000 nM
same,IC50,[36],541 nM
same,IC50,[37],2680 nM
same,IC50,[38],> 4000 nM
same,IC50,[39],439 nM
same,IC50,[40],2870 nM
same,IC50,[41],> 4000 nM
same,IC50,[42],3040 nM
same,IC50,[43],> 4000 nM
same,IC50,[44],> 4000 nM
same,IC50,[45],> 4000 nM
same,IC50,[46],> 4000 nM
same,IC50,[47],> 4000 nM
same,IC50,[48],> 4000 nM
same,IC50,[49],> 4000 nM
same,IC50,[50],> 4000 nM
same,IC50,[51],1620 nM
same,IC50,[52],3610 nM
same,IC50,[53],> 4000 nM
same,IC50,[54],3100 nM
same,IC50,[55],1200 nM
same,IC50,[56],> 4000 nM
same,IC50,[57],> 4000 nM
same,IC50,[58],> 4000 nM
same,IC50,[59],> 4000 nM
NC(=O)c1cccc(-c2cc(Nc3ccc(OC(F)(F)F)cc3)ncn2)c1,IC50,[1],> 1280 nM
same,IC50,[2],> 1280 nM
same,IC50,[3],> 1280 nM
same,IC50,[4],> 1280 nM
same,IC50,[5],> 1280 nM
same,IC50,[6],> 1280 nM
same,IC50,[7],> 1280 nM
same,IC50,[8],> 1280 nM
same,IC50,[9],> 1280 nM
same,IC50,[10],> 1280 nM
same,IC50,[11],> 1280 nM
same,IC50,[12],> 1280 nM
same,IC50,[13],> 1280 nM
same,IC50,[14],> 1280 nM
same,IC50,[15],> 1280 nM
same,IC50,[16],> 1280 nM
same,IC50,[17],> 1280 nM
CO[C@@H]1[C@H](N(C)C(=O)c2ccccc2)C[C@H]2O[C@]1(C)n1c3ccccc3c3c4c(c5c6ccccc6n2c5c31)C(=O)NC4 [MIDOSTAURIN],IC50,[3],> 512 nM
same,IC50,[18],266 nM
same,IC50,[20],> 512 nM
same,IC50,[24],> 512 nM
same,IC50,[25],211 nM
same,IC50,[27],84.3 nM
same,IC50,[28],> 512 nM
same,IC50,[31],> 512 nM
same,IC50,[34],> 512 nM
same,IC50,[44],> 512 nM
same,IC50,[59],> 512 nM
CC(C)C[C@H](NC(=O)[C@H](Cc1ccccc1)NC(=O)c1cnccn1)B(O)O [BORTEZOMIB],IC50,[1],> 20 nM
same,IC50,[2],0.657 nM
same,IC50,[3],2.31 nM
same,IC50,[4],1.25 nM
same,IC50,[5],> 20 nM
same,IC50,[6],1.33 nM
same,IC50,[7],17 nM
same,IC50,[8],2.66 nM
same,IC50,[9],0.293 nM
same,IC50,[10],0.975 nM
same,IC50,[11],> 20 nM
same,IC50,[13],2.44 nM
same,IC50,[14],4.05 nM
same,IC50,[15],> 20 nM
same,IC50,[16],5.06 nM
same,IC50,[17],1.47 nM
